From patent US5466861A, “Bridged bicyclic aromatic compounds and their use in modulating gene expression of retinoid receptors” (SRI International, priority 1992, dated 1995)

Legend:
Assay type in all cases: cell-based
[1] = tested on: CRBPI gene RARE, bound and activated by RAR/RXR heterodimers; test: Transient transfection CAT reporter assay, CRBPI-RARE; settings: CV-1 cells; retinoids 7 and 20 at 5×10^-7 M
Method: (§1) To carry out the analysis, four different reporter constructs were prepared carrying the aforementioned gene, followed by cotransfection with RARα, RARβ, or RXRα, or with RXRα and RARα together. […] CV- 1 cells or HEP G2 cells were grown in DME medium supplemented with 10% fetal calf serum. Cells were plated at 1.0×10^5 per well in a 24-well plate 16-24 hours before transfection. In general, 100 ng of reporter plasmid, 150 ng of β-galactosidase expression vector (pCH110, Pharmacia), and variable amounts of receptor expression vector were mixed with carrier DNA (pBluescript) to 1,000 ng of total DNA per well. […] The retinoids 7 and 20 were analyzed at a concentration of 5×10^-7 M.

[2] = tested on: CRBPII-RARE, activated only by RXR homodimers; test: Transient transfection CAT reporter assay, CRBPII-RARE; settings: CV-1 cells; retinoids 7 and 20 at 5×10^-7 M
Method: as §1

[3] = tested on: RXR; test: Transient transfection reporter assay in other cell lines incl. Hep G2; settings: various other cell lines, including Hep G2 cells (particular high response)
Method: (§2) To carry out the analysis, four different reporter constructs were prepared carrying the aforementioned gene, followed by cotransfection with RARα, RARβ, or RXRα, or with RXRα and RARα together. […] CV- 1 cells or HEP G2 cells were grown in DME medium supplemented with 10% fetal calf serum. Cells were plated at 1.0×10^5 per well in a 24-well plate 16-24 hours before transfection. In general, 100 ng of reporter plasmid, 150 ng of β-galactosidase expression vector (pCH110, Pharmacia), and variable amounts of receptor expression vector were mixed with carrier DNA (pBluescript) to 1,000 ng of total DNA per well. Chloramphenicol acetyl transferase (CAT) activity was normalized for transfection efficiency by the corresponding β-galactosidase activity as described by M. Pfahl et al., /Methods in Enzymology 153:256 (1990).

[4] = tested on: RARβ2 gene promoter RARE (βRARE); test: Transient transfection CAT reporter assay, βRARE; settings: CV-1 cells; 5×10^-7 M
Method: as §2

[5] = molecular target: T1, RXR (RXRα) (Homo sapiens, UniProt P19793); test: TREpal-tk-reporter gene transient transfection assay with RXR expression vector; settings: for activity on TREpal-tk-reporter with RXR at 10^-7 M / activity on TREpal-tk-reporter with RXR at 10^-8 M / activity with RXR on TREpal-tk-reporter, preliminary evaluation: CV-1 cells; for activity with RXR on TREpal-tk-reporter, preliminary evaluation: RXR expression vector cotransfected; for activation of RXRα (overall conclusion): from TREpal and CRBPII reporter results
T1 construct: homodimer readout
T1 sequence (P19793 1-462): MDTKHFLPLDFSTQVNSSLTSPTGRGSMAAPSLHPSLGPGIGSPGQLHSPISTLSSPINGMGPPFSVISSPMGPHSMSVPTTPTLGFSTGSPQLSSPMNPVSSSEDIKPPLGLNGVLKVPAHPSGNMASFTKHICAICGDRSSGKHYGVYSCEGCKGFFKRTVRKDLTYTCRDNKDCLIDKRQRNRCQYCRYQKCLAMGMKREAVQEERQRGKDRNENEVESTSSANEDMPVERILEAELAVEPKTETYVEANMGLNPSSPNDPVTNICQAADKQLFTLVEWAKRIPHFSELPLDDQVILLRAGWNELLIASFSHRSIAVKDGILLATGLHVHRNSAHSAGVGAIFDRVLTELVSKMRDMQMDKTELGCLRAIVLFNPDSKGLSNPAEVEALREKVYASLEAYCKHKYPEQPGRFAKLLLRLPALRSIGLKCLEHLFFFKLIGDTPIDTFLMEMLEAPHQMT
Excerpt: The TREpal-tk-reporter gene was use in the transient transfection assay of the preceding example to evaluate compounds 7 and 20 for induction of RXR activity specifically. The TREpal represents a response element that is activated by both RAR/RXR heterodimers and RXR homodimers (X-K. Zhang et al., Nature 358:587 (1992)).

| Compound | activation of CRBPI-RARE reporter (CAT activity) [1] | activation of CRBPII-RARE reporter (CAT activity) [2] | RXR-specific activation in other cell lines [3] | activation of βRARE reporter (CAT activity) [4] | activity on TREpal-tk-reporter with RXR at 10^-7 M [5] | activity on TREpal-tk-reporter with RXR at 10^-8 M [5] | activity with RXR on TREpal-tk-reporter, preliminary evaluation [5] | activation of RXRα (overall conclusion) [5] |
| --- | --- | --- | --- | --- | --- | --- | --- | --- |
| CC(C)=C(c1ccc(C(=O)O)cc1)c1ccc2c(c1)C(C)(C)CCC2(C)C [Compound 20, 4-[1-(5,6,7,8-Tetrahydro-5,5,8,8-tetramethyl-2-naphthalenyl)-2-methyl-1-propenyl]benzoic acid] | no response | strong activators | significant and RXR-specific activation | slightly activated | activities similar to 9-cis-retinoic acid | neither of the active compounds revealed activity | indicated activity with RXR | effective activators |
| CC1(C)CCC(C)(C)c2cc(C3(c4ccc(C(=O)O)cc4)SCCS3)ccc21 [Compound 7, [2-(5,6,7,8-Tetrahydro-5,5,8,8-tetramethyl-2-naphthalenyl)-2-(4-carboxyphenyl)]-1,3-dithiolane] | no response | strong activators |  | slightly activated | activities similar to 9-cis-retinoic acid | neither of the active compounds revealed activity | indicated activity with RXR | effective activators |
